Entries after “also recorded” stand apart in the source; their conditions may differ. Read-outs that look alike come from different tables or passages of the source.

These results are taken from patent US9844526B2 (priority 2015, dated 2017).

The test system of data set [1] is Healthy postmenopausal women. Kind of data set: Microvascular function by peripheral arterial tonometry (Endo-PAT2000), randomized double-blind crossover trial. The data set is classed as in vivo, human. The following applies: combined data.
In a further data set the test system is eNOS. To be noted: 1 μM; human umbilical vein endothelial cells; cited from earlier work.
A further data set concerns vascular function. The following applies: cited from earlier work.
The subject of a further data set is cyclooxygenase. To be noted: in vitro; cited from earlier work.
Data set [2] deals with platelets. To be noted: 10 mg daily for three months; cited from earlier work.
Data set [3] relates to platelets. To be noted: in vitro, 10-1,000 μM, dose dependent; cited from earlier work.
Data set [4] has as its system platelets. Briefly: Platelet function by whole blood/optical lumi-aggregometer after capsule intake. The format is in vivo, human. Here is the method: Participants were randomized by block design to consumed trans-res or […] random order. Randomization was performed by the study coordinator following a predetermined plan formulated via a web-based random number generator. […] The study included two separate investigations: a one hour study and a two hour study (FIG. 6). During each study visit, which took place after an overnight fast, a baseline measurement of PAT and a blood sample were collected, followed by consumption of the assigned treatment. During the one hour study, PAT measurements and blood samples were collected thirty and sixty minutes after the capsules were consumed. During the two hour study, a PAT measurement and blood sample were taken two hours after the capsules were consumed. Platelet reactivity during clinical screening was assessed by a PFA-100 (Siemens, Deerfield, Ill.), which measures platelet function by simulating arterial hemostasis under blood flow shear stress. During the intervention, platelet function was assessed by a whole blood/optical lumi-aggregometer (Chrono-log Model 700, Havertown, Pa.). Briefly, platelet aggregation was measured via electrical impedence (or electrical resistance), whereas lumi-aggregometry was used to examine aggregation together with adenosine triphosphate (hereafter, “ATP”) release, which is determined with firefly luciferin-luciferase system. […] One of the following agonists was used to stimulate platelets: collagen ([…]), AA (10 μL) or ADP ([…]). ATP release was measured only when platelets were activated with ADP. The aggregation was measured over a period of six minutes, following the addition of an agonist.

Data set [5] can be described thus: Plasma resveratrol concentrations after capsule intake (HPLC). To be noted: one hour study, median (interquartile range), baseline 0.00 (0.00, 0.00). The format is in vivo, human. Here is the method:
The study included two separate investigations: a one hour study and a two hour study (FIG. 1). […] The two hour study was designed to fully assess and compare the responses to trans-res and ResArgin™.
Participants were randomized by block design to consumed trans-res or ResArgin™ in random order. Randomization was performed by the study coordinator following a predetermined plan formulated via a web-based random number generator. […] The study included two separate investigations: a one hour study and a two hour study (FIG. 6). During each study visit, which took place after an overnight fast, a baseline measurement of PAT and a blood sample were collected, followed by consumption of the assigned treatment. During the one hour study, PAT measurements and blood samples were collected thirty and sixty minutes after the capsules were consumed. During the two hour study, a PAT measurement and blood sample were taken two hours after the capsules were consumed.
Briefly, plasma was treated with acidified methanol [0.5% (v/v) of acetic acid in methanol; precooled to −20° C.] containing an appropriate recovery standard. The mixture was stored at −80 C for 12 hours to allow for cryo-assisted protein precipitation, and then centrifuged for 15 min at 16,500×g. […]

Data set [6] concerns platelets. The following applies: 4 mg/kg/day; cited from earlier work.
Where [7] appears, read: 10 mg per day for three months, stable coronary artery disease patients.
Where [8] appears, read: platelets stimulated with 1 μL collagen, one hour post consumption of 90 mg.
The mark [9] stands for this setting: platelets stimulated with 10 μL arachidonic acid, one hour after intake of 90 mg.

Take `Oc1ccc(/C=C/c2cc(O)cc(O)c2)cc1` [trans-res, Trans-resveratrol]: the “AI@75 (AI normalized to a heart rate of 75 beats per minute), change” value in data set [1] (90 mg) is “No significant changes”. The RHI entry in data set [1] (1 hour after intake, ResArgin baseline 2.119±0.085) was “not observed”. Further, the “FRHI, change from baseline” value in data set [1] (one and two hours after intake) was “No differences were observed; also recorded: no changes”. Further, the “Expression of eNOS” value in the data set with eNOS is recorded as “up-regulated”. Also, the FMD response entry is listed as “significant improvement” in the data set on vascular function (setting [7]); “significant increase” with vascular function (75 mg daily for six weeks); “significant increase” in the data set with vascular function (75 mg, one hour post-consumption); “increase” with vascular function (single dose of 30, 90 and 270 mg, one hour after consumption). Further, the “Cyclooxygenase (COX) activity” value with cyclooxygenase is on record as “inhibit”. Further, the Platelet aggregation result in the data set with platelets [2] and in the data set with platelets [3] was “significantly reduced” each time. In addition, the “Slope, change from baseline” value is on record as “significant decrease” with platelets [4] (lumi-aggregometry with 10 μL ADP, one hour post consumption of 90 mg) and “not” in the data set on platelets [4] (setting [8]). For the same compound, the “Lag time, change from baseline” value in the data set with platelets [4] (setting [8]) is given as “significant increase”. The “Area under the curve (AUC) of aggregation, change from baseline” value in the data set on platelets [4] (setting [9]) is “no changes”. The “Maximum aggregation, change from baseline” value in the data set with platelets [4] (setting [9]) was “no changes”. Further, the “Platelet function, change from baseline” value in the data set on platelets [4] (stimulation with 5 μL collagen, one hour post consumption of 90 mg) is listed as “no significant changes”. Moreover, the Plasma resveratrol concentration in data set [5] (30 minutes after intake of 90 mg) is listed as 2.04 (0.82, 2.54); in data set [5] (60 minutes after intake of 90 mg), 2.65 (1.69, 3.44).

Regarding `Oc1ccc(C=Cc2cc(O)cc(O)c2)cc1` [Resveratrol, 3,5, 4′-trihydroxystilbene], the FMD response entry in the data set on vascular function (setting [7]) and in the data set with vascular function (75 mg daily for six weeks) was “enhanced” throughout. In addition, in the data set with platelets [6], the ADP-induced platelet aggregation result was “inhibited”.
